US4382939A, “3-[2-(Mono-and dialkylamino)propyl]-1,2,3,4-tetrahydro-5H-[1]benzopyrano[3,4-C]pyridin- 5-ones useful for treating bronchospastic diseases” (Warner Lambert Company, priority 1982, dated 1983)

Experiments:
[1] = test system: bronchospasm (pilocarpine nitrate); experiment: Inhibition of pilocarpine-induced bronchospasm in anesthetized dogs (pulmonary mechanics); type: in vivo, mongrel dogs; conditions: for ED50: Canis lupus familiaris, iv, anesthetized dogs, cumulative i.v. doses, pilocarpine-induced bronchospasm, read-out: ID50 Bronchospasm; for Pulmonary Selectivity*: dogs, i.v., >1 indicates more potent as a bronchodilator than as an antisecretory agent
Experimental: (§1) In an additional testing procedure, mongrel dogs of either sex, 10.6 to 15.3 kg, are anesthetized with sodium pentobarbital, 30 mg/kg i.v. and then prepared for the monitoring of pulmonary mechanics. A Buxco pulmonary mechanics computer is used to calculate pulmonary resistance, dynamic compliance, and tidal volume from transpulmonary pressure and flow data. Respiratory rate, heart rate and mean arterial blood pressure are also monitored. The femoral vein is cannulated for the delivery of drugs. Pilocarpine nitrate (0.2 mg/kg/hr) is than infused to induce a bronchospasm and salivary flow. […] Salivary output is collected from a catheterized Wharton's duct at five minute intervals. After salivation has stabilized, 3 control collections are taken at 5 minute intervals followed by a series of cumulative i.v. doses of test compound (1, 3, 10, 30, 100, 300, 1000, 3000, and 10,000 μg/kg) that are injected every 5 minutes for 45 minutes. The percent inhibition of both the bronchospasm and salivation are calculated for each dose with a return to pre-pilocarpine resistance levels or cessation of salivation equal to a 100% inhibition.

[2] = test system: collapse on exposure to an aerosol of methacholine; experiment: Anticholinergic test: prolongation of collapse time in conscious guinea pigs exposed to an aerosol of methacholine; type: in vivo; conditions: guinea pig, 25 mg/kg intraperitoneally; 10 minutes methacholine aerosol; Control 1.9 to 2.0
Experimental: The compounds of the invention display anticholinergic properties when tested by the following procedure: Conscious guinea pigs, six at a time, are put into a sealed chamber and exposed for 10 minutes to an aerosol of methacholine. Untreated animals or those treated with vehicle will collapse in 1.9±0.1 minutes. Groups of animals are injected intraperitoneally with 25 mg/kg of test compound and exposed in the chamber under the same conditions. Compounds which prolong the collapse time past that of the control animals are considered active.

[3] = test system: salivation (pilocarpine nitrate); experiment: Inhibition of pilocarpine-induced salivation in anesthetized dogs; type: in vivo, mongrel dogs; conditions: Canis lupus familiaris, iv, cumulative i.v. doses, pilocarpine-induced salivary flow, read-out: ID50 Salivation
Experimental: as §1

SMILES	ED50 [1] [mg/kg]	Pulmonary Selectivity* [1]	(Minutes Protection) [2] [min]	ED50 [3] [mg/kg]
CCN(CC)C(C)CN1CCc2c(c(=O)oc3ccccc23)C1 (centres unmarked) [H H H Et Et, 3-[2-(Diethylamino)propyl]-1,2,3,4-tetrahydro-5H-[1]benzopyrano[3,4-c]pyridin-5-one]	0.336	7	10.0	2.31
CCNC(C)CN1CCc2c(c(=O)oc3ccccc23)C1 (centres unmarked) [H H H Et H, 3-[2-(Ethylamino)propyl]-1,2,3,4-tetrahydro-5H-[1]benzopyrano[3,4-c]pyridin-5-one]	0.21	6	10.0	1.23
CC(CN1CCc2c(c(=O)oc3ccccc23)C1)N(C)C (centres unmarked) [H H H Me Me, 3-[2-(Dimethylamino)propyl]-1,2,3,4-tetrahydro-5H-[1]benzopyrano[3,4-c]pyridin-5-one]	0.192	22	10.0	4.15
CCN(CC)C(C)CN1CCc2c(c(=O)oc3cc(C)ccc23)C1 (centres unmarked) [H Me H Et Et, 3-[2-(Diethylamino)propyl]-1,2,3,4-tetrahydro-8-methyl-5H-[1]benzopyrano[3,4-c]pyridin-5-one]	0.111	4.6	6.6	0.51
CCN(C)C(C)CN1CCc2c(c(=O)oc3cc(C)ccc23)C1 (centres unmarked) [H Me H Me Et, 3-[2-(Ethylmethylamino)propyl]-1,2,3,4-tetrahydro-8-methyl-5H-[1]benzopyrano[3,4-c]pyridin-5-one]	0.15	2.2	8.8	0.336
Cc1ccc2c3c(c(=O)oc2c1)CN(CC(C)N(C)C)CC3 (centres unmarked) [H Me H Me Me, 3-[2-(Dimethylamino)propyl]-1,2,3,4-tetrahydro-8-methyl-5H-[1]-benzopyrano[3,4-c]pyridin-5-one]	0.114	3.7	10.0	0.421
CCN(CC)C(C)CN1CCc2c(c(=O)oc3cc(OC)c(OC)cc23)C1.Cl.Cl (centres unmarked) [MeO MeO H Et Et, 3-[2-(Diethylamino)propyl]-1,2,3,4-tetrahydro-8,9-dimethoxy-5H-[1]benzopyrano[3,4-c]pyridin-5-one dihydrochloride]	0.073	3.5	7.8	0.257
COc1cc2oc(=O)c3c(c2cc1OC)CCN(CC(C)N(C)C)C3.Cl.Cl (centres unmarked) [MeO MeO H Me Me, 3-[2-(Dimethylamino)propyl]-1,2,3,4-tetrahydro-8,9-dimethoxy-5H-[1]benzopyrano[3,4-c]pyridin-5-one dihydrochloride]	0.098	4.5	5.2	0.441
